pIC50: −log10 of the molar value. “Also recorded” adds a separate entry of the source. Read-outs that look alike come from different tables or passages of the source.
Columns and labels:
[1] = system: patients with breast cancer; assay: PET imaging in patients with breast cancer; format: in vivo, human; details: person, metastatic breast cancer
Protocol: (§1) In breast cancer patients, whole-body PET scans were obtained, beginning at 10 min post-administration of FCH. In patients with brain tumors, PET scans of the brain were obtained, beginning at 5 min post-administration of FCH.
Thirteen patients with metastatic breast cancer and one patient with both primary and metastatic breast cancer were each imaged with both FCH-PET and FDG-PET within a period of less than one month.
A person had undergone re-excision of right breast intraductal carcinoma 4 yr prior, then right modified radical mastectomy 3 yr prior followed by tamoxifen chemotherapy. Six months prior to the PET scans, metastatic breast cancer was detected by palpation (right breast sternal mass) and CT (mediastinal and hilar adenopathies, mass in right anterior pelvis). Tamoxifen therapy was stopped. […] Uptake of FCH was also observed in the corresponding tumors: sternal mass (SUV=14.6), mediastinal and hilar adenopathies (SUVs˜8.5), pelvic mass (SUV=6.5). […] Smaller metastases were indicated on the FCH-PET scan in the right chest wall and left lung that were not seen on the FDG-PET scan. Concerning the anterior pelvic tumor, there was observed a homogenous distribution of FDG across the tumor in the FDG-PET scan, whereas the FCH was preferentially distributed on the periphery of the tumor.

[2] = system: patients with brain tumors; assay: PET imaging in patients with brain tumors; format: in vivo, human; details: 5 patients with resected brain tumors, after injection
Protocol: as §1
PET imaging was performed in 5 patients with resected brain tumors for evaluation of recurrence of cancer. Dynamic images were obtained over the brain for the first 15 min after injection of FCH (2.5-6 mCi). Transmission scans were acquired before injection of radiotracer for purposes of attenuation correction. […] Radioactivity concentration in normal brain tissue was very low, allowing excellent delineation of the tumor. […] (See FIG. 12)

yeast choline kinase = molecular target: T1, yeast choline kinase (Saccharomyces cerevisiae, UniProt P20485); assay: In vitro phosphorylation by yeast choline kinase; format: biochemical
T1 sequence (P20485 1-582): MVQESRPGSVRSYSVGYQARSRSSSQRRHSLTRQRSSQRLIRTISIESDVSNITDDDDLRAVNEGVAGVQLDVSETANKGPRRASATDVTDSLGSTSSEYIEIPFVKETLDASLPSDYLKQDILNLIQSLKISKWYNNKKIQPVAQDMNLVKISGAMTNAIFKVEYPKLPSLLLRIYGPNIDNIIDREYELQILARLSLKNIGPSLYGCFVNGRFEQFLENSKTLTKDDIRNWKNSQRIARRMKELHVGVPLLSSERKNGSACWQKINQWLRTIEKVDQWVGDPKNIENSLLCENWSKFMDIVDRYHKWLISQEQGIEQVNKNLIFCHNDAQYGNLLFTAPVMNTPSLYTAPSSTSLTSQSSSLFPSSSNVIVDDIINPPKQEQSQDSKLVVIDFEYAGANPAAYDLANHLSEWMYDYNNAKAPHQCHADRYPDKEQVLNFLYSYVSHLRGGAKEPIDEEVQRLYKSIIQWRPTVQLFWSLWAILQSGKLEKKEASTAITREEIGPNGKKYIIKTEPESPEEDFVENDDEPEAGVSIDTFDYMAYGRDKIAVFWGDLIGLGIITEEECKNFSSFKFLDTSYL
Protocol: The test tube was gently agitated throughout the incubation period. The reaction was stopped by placing the tube in a boiling water bath for 2 min. To serve as controls, some samples were placed directly in the boiling water bath after addition of all substrates. […] The percentage of radioactivity converted to the phosphorylated form was calculated.

[3] = system: mice with PC-3 xenografts
Protocol: Body weight and tumor volume were measured weekly and tumor volume (mm3) was calculated using the formula S2×L/2, where S and L represent the small and large diameters of the tumor, respectively.
A prescribed duration of time was allowed before procurement of heart, liver, lung, blood, kidney, bone (femur), brain (whole), prostate gland, tumor, bladder, and skeletal muscle. The tissues were weighed, and counted for ^18F in a gamma counter, then dissolved in Solvable (Dupont, Boston Mass.) and counted for ^14C in a liquid scintillation counter. For the bladder, the percentage of the injected dose in the urine was determined. For all other tissues, radiotracer uptake was calculated as: […]

[4] = Stability of the FCH preparation (HPLC); format: physicochemical; details: room temperature for 7 hr, cation-exchange HPLC
Protocol: The stability of FCH in its prepared form was evaluated by monitoring the radiochemical purity using the HPLC system described above. […] After an incubation of 2 hr at 37 C, the plasma was separated, the plasma proteins precipitated by adding two volumes of methanol, and the supernatant was analyzed for intact FCH by cation-exchange HPLC. […] FCH was also found to be stable in a blood samples taken from healthy human subjects (n=5).

C[N+](C)(CF)CCO.[Cl-] [FCH, dimethylfluoromethyl-2-hydroxyethylammonium chloride]
SUV of pelvic tumor / pelvic mass [1]: 6.5
SUV of sternal mass [1]: 14.6
SUVs of mediastinal and hilar adenopathies [1]: ~8.5
time to plateau of radiotracer concentration in the tumor [2]: ≤ 5 min
phosphorylation rate compared with CH (yeast choline kinase; 1 μM choline): equivalent to CH
In vitro phosphorylation (yeast choline kinase; 1 μM choline, 25 mU/ml yeast choline kinase, 23° C., 10 min, n = 5): 62.0 ± 8.8%
pIC50 (yeast choline kinase; choline 1-10,000 μM, 25 mU/ml choline kinase, 10 min, 23 C, read-out: apparent IC50 for inhibition of phosphorylation of radiotracer by choline): ~3.40
Uptake in Blood ([3]; 10 min): 2.7 ± 0.9 % dose kg/100 g
Uptake in Brain ([3]; 10 min): 0.8 ± 0.3 % dose kg/100 g
Uptake in Heart ([3]; 10 min): 15.5 ± 5.9 % dose kg/100 g
Uptake in Kidney ([3]; 10 min): 127.7 ± 27.6 % dose kg/100 g
Uptake in Liver ([3]; 10 min): 50.7 ± 15.3 % dose kg/100 g
Uptake in Lung ([3]; 10 min): 18.0 ± 5.3 % dose kg/100 g
Uptake in Prostate ([3]; 10 min): 6.6 ± 2.2 % dose kg/100 g
Uptake in Skeletal Muscle ([3]; 10 min): 4.4 ± 1.8 % dose kg/100 g
Uptake in Tumor ([3]; 10 min): 3.6 ± 0.6 % dose kg/100 g
Uptake in Blood ([3]; 30 min): 3.3 ± 0.2 % dose kg/100 g
Uptake in Brain ([3]; 30 min): 1.0 ± 0.2 % dose kg/100 g
Uptake in Heart ([3]; 30 min): 13.2 ± 2.6 % dose kg/100 g
Uptake in Kidney ([3]; 30 min): 116 ± 17 % dose kg/100 g
Uptake in Liver ([3]; 30 min): 56.7 ± 13.2 % dose kg/100 g
Uptake in Lung ([3]; 30 min): 17.1 ± 1.4 % dose kg/100 g
Uptake in Prostate ([3]; 30 min): 7.1 ± 2.1 % dose kg/100 g
Uptake in Skeletal Muscle ([3]; 30 min): 1.1 ± 1.0 % dose kg/100 g
Uptake in Tumor ([3]; 30 min): 7.1 ± 2.1 % dose kg/100 g
Uptake in Blood ([3]; 60 min): 1.5 ± 0.6 % dose kg/100 g
Uptake in Brain ([3]; 60 min): 0.8 ± 0.1 % dose kg/100 g
Uptake in Heart ([3]; 60 min): 12.7 ± 3.2 % dose kg/100 g
Uptake in Kidney ([3]; 60 min): 94.3 ± 31.0 % dose kg/100 g
Uptake in Liver ([3]; 60 min): 58.4 ± 40.6 % dose kg/100 g
Uptake in Lung ([3]; 60 min): 21 ± 4.4 % dose kg/100 g
Uptake in Prostate ([3]; 60 min): 7.1 ± 3.0 % dose kg/100 g
Uptake in Skeletal Muscle ([3]; 60 min): 4.1 ± 0.6 % dose kg/100 g
Uptake in Tumor ([3]; 60 min): 7.9 ± 5.0 % dose kg/100 g
tumor uptake ([3]; PC-3 xenograft): ~0.07 % dose kg/g
injected dose in the urinary bladder ([3]; at 30 min): 10%
tumor:blood ratio ([3]; at 60 min): 5.3±2.4
liver uptake compared with CH ([3]; mouse, in vivo): lower
uptake by normal brain compared with other tracers ([3]; mouse, in vivo): one tenth that for FDG; also recorded: one half that of CH
radiochemical purity after storage of the preparation [4]: > 99%

Source: patent US6630125B2, “18F-labeled choline analogs” (priority 2000, dated 2003)
